The results in this text go back to US20260217767A1, “NOVEL A4B7 THIOETHER PEPTIDE DIMER ANTAGONISTS” (Protagonist Therapeutics, Inc., priority 2014, published 2026).

Where a SMILES comes first, the peptide text is derived from it.

The experiment has as its target T1, RPMI 8866 cells (Homo sapiens, UniProt P13612+P26010).
T1 sequence (P13612 34-1032): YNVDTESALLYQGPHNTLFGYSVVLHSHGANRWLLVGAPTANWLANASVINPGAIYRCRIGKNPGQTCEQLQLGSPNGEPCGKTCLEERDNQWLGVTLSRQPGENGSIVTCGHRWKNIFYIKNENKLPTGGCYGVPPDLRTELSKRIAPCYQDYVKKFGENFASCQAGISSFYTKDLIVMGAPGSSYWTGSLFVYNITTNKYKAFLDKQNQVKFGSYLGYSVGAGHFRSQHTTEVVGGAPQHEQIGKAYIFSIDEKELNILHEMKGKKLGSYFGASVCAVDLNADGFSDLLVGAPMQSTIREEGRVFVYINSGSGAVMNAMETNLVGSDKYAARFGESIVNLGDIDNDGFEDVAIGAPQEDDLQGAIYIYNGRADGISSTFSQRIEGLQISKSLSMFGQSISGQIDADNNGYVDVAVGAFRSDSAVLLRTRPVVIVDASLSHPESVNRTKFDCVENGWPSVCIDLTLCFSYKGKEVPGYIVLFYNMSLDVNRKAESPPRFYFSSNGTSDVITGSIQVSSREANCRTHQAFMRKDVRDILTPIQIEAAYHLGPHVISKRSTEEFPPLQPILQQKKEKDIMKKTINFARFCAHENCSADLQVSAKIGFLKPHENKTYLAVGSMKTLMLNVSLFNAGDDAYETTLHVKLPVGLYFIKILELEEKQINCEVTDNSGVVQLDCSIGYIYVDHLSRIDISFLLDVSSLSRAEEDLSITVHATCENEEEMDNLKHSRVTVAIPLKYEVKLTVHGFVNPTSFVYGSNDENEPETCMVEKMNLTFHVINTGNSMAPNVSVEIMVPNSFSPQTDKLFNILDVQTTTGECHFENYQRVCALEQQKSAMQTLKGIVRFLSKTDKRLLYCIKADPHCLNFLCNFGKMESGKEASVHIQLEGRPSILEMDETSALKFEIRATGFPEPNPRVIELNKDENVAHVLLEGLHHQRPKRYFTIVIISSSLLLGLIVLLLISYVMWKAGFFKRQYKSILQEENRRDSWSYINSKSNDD
T1 sequence (P26010 20-798): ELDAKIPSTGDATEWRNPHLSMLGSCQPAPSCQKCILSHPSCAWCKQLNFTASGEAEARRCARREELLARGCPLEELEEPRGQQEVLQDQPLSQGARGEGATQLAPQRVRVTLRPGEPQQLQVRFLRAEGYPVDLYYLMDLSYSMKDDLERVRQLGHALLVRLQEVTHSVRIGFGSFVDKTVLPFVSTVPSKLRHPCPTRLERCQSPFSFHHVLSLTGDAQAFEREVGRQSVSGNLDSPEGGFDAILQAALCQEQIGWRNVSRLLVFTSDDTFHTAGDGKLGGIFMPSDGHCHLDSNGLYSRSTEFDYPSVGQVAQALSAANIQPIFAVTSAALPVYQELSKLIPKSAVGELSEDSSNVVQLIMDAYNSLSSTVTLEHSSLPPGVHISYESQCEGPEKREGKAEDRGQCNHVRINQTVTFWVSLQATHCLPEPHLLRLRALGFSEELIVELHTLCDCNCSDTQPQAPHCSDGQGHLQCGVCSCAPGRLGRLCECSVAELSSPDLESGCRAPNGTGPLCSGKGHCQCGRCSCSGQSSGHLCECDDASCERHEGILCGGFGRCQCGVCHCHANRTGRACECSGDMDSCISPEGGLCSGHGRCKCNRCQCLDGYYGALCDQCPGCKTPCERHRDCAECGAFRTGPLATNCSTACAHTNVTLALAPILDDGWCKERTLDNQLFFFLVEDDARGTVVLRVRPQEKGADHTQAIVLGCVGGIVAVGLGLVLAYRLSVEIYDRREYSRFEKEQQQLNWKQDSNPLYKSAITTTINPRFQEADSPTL
Description: α4β7-MAdCAM Cell Adhesion Assay. In kind it is cell-based. The note with it: thioether peptide dimers, Table 7; read-out: Cell-Adhesion A4B7. As for the experimental part: α4β7-MAdCAM Cell Adhesion Assay
RPMI 8866 cells (Sigma #95041316) were cultured in RPMI 1640 HEPES medium (Invitrogen #22400-089) supplemented with 10% serum (Fetal Bovine Serum, Invitrogen #16140-071), 1 mM sodium pyruvate (Invitrogen #11360-070), 2 mM L-glutamine (Invitrogen #25030-081) and Penicillin-Streptomycin (Invitrogen #15140-122) at 100 units of penicillin and 100 μg of streptomycin per ml. The cells were washed two times in DMEM medium (ATCC #30-2002) supplemented with 0.1% BSA, 10 mM HEPES pH 7 and 1 mM MnCl2. The cells were re-suspended in supplemented DMEM medium at a density of 4×10^6 cells/ml.
A Nunc MaxiSorp plate was coated with rh MAdCAM-1/Fc Chimera (R&D #6065-MC) at 200 ng per well in 50 ul per well in 1×PBS and incubated at 4° C. overnight. The solution was then removed by shaking, blocked with 250 ul per well PBS containing 1% BSA, and incubated at 37° C. for 1 hr. The solution was removed by shaking. Peptides were diluted by serial dilution in a final volume of 50 ul per well (2× concentration). To each well, 50 ul of cells (200,000 cells) were added and the plate was incubated at 37° C., 5% CO2 for 30-45 min to allow cell adhesion. The wells were washed manually three times (100 ul per wash) with supplemented DMEM. After the final wash, 100 μl/well of supplemented DMEM and 10 ul/well of MTT reagent (ATTC cat #30-1010K) were added. The plate was incubated at 37° C., 5% CO2 for 2-3 hrs until a purple precipitate is visible. 100 ul of Detergent Reagent (ATTC cat #30-1010K) was added to each well. The plate was covered from the light, wrapped in Parafilm to prevent evaporation, and left overnight at room temperature in the dark. The plate was shaken for 5 min and the absorbance at 570 nm is measured. To calculate the dose response, the absorbance value of control wells not containing cells was subtracted from each test well.
With `CC(C)C[C@@H]1NC(=O)[C@H]([C@@H](C)O)NC(=O)[C@H](CCC(=O)O)NC(=O)[C@H](CO)NC(=O)[C@H](CCCNC(=N)N)N(C)C(=O)c2ccccc2CSC(C)(C)[C@@H](C(=O)N[C@@H](Cc2ccccc2)C(=O)N[C@H](CCC(=O)O)C(=O)N[C@H](CCCCN)C(N)=O)NC1=O` [compound 189] (HELM PEPTIDE1{[meR].S.E.T.L.[Pen].F.[dE].[dK].[am]}|CHEM1{[O=C(c1ccccc1C[*:2])[*:1]]}$PEPTIDE1,CHEM1,1:R1-1:R1|PEPTIDE1,CHEM1,6:R3-1:R2$$$V2.0), the IC50 is more than 1000 nM.
Take `CC(C)C[C@@H]1NC(=O)[C@H]([C@@H](C)O)NC(=O)[C@H](CC(=O)O)NC(=O)[C@H](CO)NC(=O)[C@H](CCCNC(=N)N)N(C)C(=O)c2ccccc2CSC(C)(C)[C@@H](C(=O)N[C@@H](Cc2c[nH]c3ccccc23)C(=O)N[C@H](CCC(=O)O)C(=O)N[C@@H](CC(C)C)C(=O)N[C@H](CCCCN)C(N)=O)NC1=O` [compound 190] (HELM PEPTIDE1{[meR].S.D.T.L.[Pen].W.[dE].L.[dK].[am]}|CHEM1{[O=C(c1ccccc1C[*:2])[*:1]]}$PEPTIDE1,CHEM1,1:R1-1:R1|PEPTIDE1,CHEM1,6:R3-1:R2$$$V2.0): the IC50 was less than 25 nM.
The figure for `CC(C)C[C@@H]1NC(=O)[C@H]([C@@H](C)O)NC(=O)[C@H](CC(=O)O)NC(=O)[C@H](CO)NC(=O)[C@H](CCCNC(=N)N)N(C)C(=O)c2ccccc2CSC(C)(C)[C@@H](C(=O)N[C@@H](Cc2c[nH]c3ccccc23)C(=O)N[C@H](CCC(=O)O)C(=O)N[C@@H](Cc2ccccc2)C(=O)N[C@H](CCCCN)C(N)=O)NC1=O` [compound 192] (HELM PEPTIDE1{[meR].S.D.T.L.[Pen].W.[dE].F.[dK].[am]}|CHEM1{[O=C(c1ccccc1C[*:2])[*:1]]}$PEPTIDE1,CHEM1,1:R1-1:R1|PEPTIDE1,CHEM1,6:R3-1:R2$$$V2.0) is less than 25 nM; for `CC(C)C[C@@H]1NC(=O)[C@H]([C@@H](C)O)NC(=O)[C@H](CC(=O)O)NC(=O)[C@H](CO)NC(=O)[C@H](CCCNC(=N)N)N(C)C(=O)c2ccccc2CSC(C)(C)[C@@H](C(=O)N[C@@H](Cc2c[nH]c3ccccc23)C(=O)N[C@H](CCC(=O)O)C(=O)N[C@@H](Cc2c[nH]cn2)C(=O)N[C@H](CCCCN)C(N)=O)NC1=O` [compound 193] (HELM PEPTIDE1{[meR].S.D.T.L.[Pen].W.[dE].H.[dK].[am]}|CHEM1{[O=C(c1ccccc1C[*:2])[*:1]]}$PEPTIDE1,CHEM1,1:R1-1:R1|PEPTIDE1,CHEM1,6:R3-1:R2$$$V2.0) it is less than 25 nM.
Take `CC(C)C[C@@H]1NC(=O)[C@H]([C@@H](C)O)NC(=O)[C@H](CC(=O)O)NC(=O)[C@H](CO)NC(=O)[C@H](CCCNC(=N)N)N(C)C(=O)c2ccccc2CSC(C)(C)[C@@H](C(=O)N[C@@H](Cc2c[nH]c3ccccc23)C(=O)N[C@H](CCC(=O)O)C(=O)N[C@@H](Cc2ccc(O)cc2)C(=O)N[C@H](CCCCN)C(N)=O)NC1=O` [compound 195] (HELM PEPTIDE1{[meR].S.D.T.L.[Pen].W.[dE].Y.[dK].[am]}|CHEM1{[O=C(c1ccccc1C[*:2])[*:1]]}$PEPTIDE1,CHEM1,1:R1-1:R1|PEPTIDE1,CHEM1,6:R3-1:R2$$$V2.0): the IC50 was less than 25 nM.
The figure for `CC(C)C[C@@H]1NC(=O)[C@H]([C@@H](C)O)NC(=O)[C@H](CC(=O)O)NC(=O)[C@H](CO)NC(=O)[C@H](CCCNC(=N)N)N(C)C(=O)c2ccccc2CSC(C)(C)[C@@H](C(=O)N[C@@H](Cc2c[nH]c3ccccc23)C(=O)N[C@H](CCC(=O)O)C(=O)N[C@H](CO)C(=O)N[C@H](CCCCN)C(N)=O)NC1=O` [compound 197] (HELM PEPTIDE1{[meR].S.D.T.L.[Pen].W.[dE].[dS].[dK].[am]}|CHEM1{[O=C(c1ccccc1C[*:2])[*:1]]}$PEPTIDE1,CHEM1,1:R1-1:R1|PEPTIDE1,CHEM1,6:R3-1:R2$$$V2.0) is less than 25 nM.
Consider `CC(C)C[C@@H]1NC(=O)[C@H]([C@@H](C)O)NC(=O)[C@H](CC(=O)O)NC(=O)[C@H](CO)NC(=O)[C@H](CCCNC(=N)N)N(C)C(=O)c2ccccc2CSC(C)(C)[C@@H](C(=O)N[C@@H](Cc2c[nH]c3ccccc23)C(=O)N[C@H](CCC(=O)O)C(=O)N[C@H](Cc2ccccc2)C(=O)N[C@H](CCCCN)C(N)=O)NC1=O` [compound 198] (HELM PEPTIDE1{[meR].S.D.T.L.[Pen].W.[dE].[dF].[dK].[am]}|CHEM1{[O=C(c1ccccc1C[*:2])[*:1]]}$PEPTIDE1,CHEM1,1:R1-1:R1|PEPTIDE1,CHEM1,6:R3-1:R2$$$V2.0), for which the IC50 is less than 25 nM.
The figure for `CC(C)C[C@@H]1NC(=O)[C@H]([C@@H](C)O)NC(=O)[C@H](CC(=O)O)NC(=O)[C@H](CO)NC(=O)[C@H](CCCNC(=N)N)N(C)C(=O)c2ccccc2CSC(C)(C)[C@@H](C(=O)N[C@@H](Cc2c[nH]c3ccccc23)C(=O)N[C@H](CCC(=O)O)C(=O)N[C@H](Cc2c[nH]cn2)C(=O)N[C@H](CCCCN)C(N)=O)NC1=O` [compound 199] (HELM PEPTIDE1{[meR].S.D.T.L.[Pen].W.[dE].[dH].[dK].[am]}|CHEM1{[O=C(c1ccccc1C[*:2])[*:1]]}$PEPTIDE1,CHEM1,1:R1-1:R1|PEPTIDE1,CHEM1,6:R3-1:R2$$$V2.0) is less than 25 nM.
In the case of `CC(C)C[C@@H]1NC(=O)[C@H]([C@@H](C)O)NC(=O)[C@H](CC(=O)O)NC(=O)[C@H](CO)NC(=O)[C@H](CCCNC(=N)N)N(C)C(=O)c2ccccc2CSC(C)(C)[C@@H](C(=O)N[C@@H](Cc2c[nH]c3ccccc23)C(=O)N[C@H](CCC(=O)O)C(=O)N[C@H](CCC(=O)O)C(=O)N[C@H](CCCCN)C(N)=O)NC1=O` [compound 200] (HELM PEPTIDE1{[meR].S.D.T.L.[Pen].W.[dE].[dE].[dK].[am]}|CHEM1{[O=C(c1ccccc1C[*:2])[*:1]]}$PEPTIDE1,CHEM1,1:R1-1:R1|PEPTIDE1,CHEM1,6:R3-1:R2$$$V2.0), the IC50 was less than 25 nM.
